{"source": "patent US20260092085A1", "about": "“SYNTHETIC TRIPLEX PEPTIDE NUCLEIC ACID-BASED INHIBITORS FOR CANCER THERAPY” (University of Connecticut, priority 2022, published 2026)", "key": {"Mcl-1 and Caspase-3": {"tested_on": "Mcl-1 and Caspase-3", "experiment": "Western blot of Mcl-1 and Caspase-3 in U2932 cells", "format": "cell-based, human", "conditions": "U2932, 500 nM", "protocol": "FIGS. 3A-F show cell culture-based functional assay in U2932 lymphoma cells. (3A) γtcPNA-155-TAMRA uptake in the U2932 lymphoma cell line: Representative flow cytometry traces of TAMRA fluorescence in U2932 cells after treatment with 500 nM dose of γtcPNA-155-TAMRA for 48 hours. The data was analyzed by FlowJo software. (3B) Normalized miR-155 gene expression levels in U2932 after treatment with phosphate buffer saline (PBS) as a control and with 500 nM dose of Scr-γtcPNA-155, PNA-155, γPNA-155 and γtcPNA-155 for 48 hours compared to average control U6 (n=3), data represented as mean±standard error mean (SEM), Statistical analysis was performed using Unpaired two-tailed t-test. […] (3E) Representative western blot of Mcl-1 and its quantification (n=3 technical replicate) and (3F) Caspase-3 protein and its quantification (n=3 technical replicate) in U2932 cell line after treatment with 500 nM of Scr-γtcPNA-155, PNA-155 and γtcPNA-155 for 48 hours. […] Numbers above western blot panels represent relative quantification of the respective bands using ImageJ software and normalized relative to loading control and treatment control.\nFIGS. 5A-B show representative western blot of Mcl-1 (5A) and Caspase-3 (5B) and its quantification (n=3) obtained from U2932 cell line after treatment with 500 nM of Scr-γtcPNA-155, γPNA-155 and γtcPNA-155 for 48 hours. […]"}, "U2932 cells": {"tested_on": "U2932 cells", "experiment": "Cell viability by trypan blue assay, U2932", "format": "cell-based, human", "protocol": "Cell viability was performed using trypan blue-based assay (n=3 technical triplicate), data represented as mean±(SEM), * represents the statistical analysis were performed relative to Scr-γtcPNA-155 and ♦ represent analysis performed relative to PNA-155. *p<0.05, **p<0.01, ***p<0.001 and ****p<0.0001, ♦p<0.05, ♦♦p<0.01, unpaired two-tailed t-test was used for statistical analysis. The experiment was repeated three times and in triplicate.\nCell viability was performed using trypan blue-based assay (n=3), data represented as mean±standard error mean (SEM), *p<0.05, **p<0.01. Unpaired two-tailed t-test was used for statistical analysis.\nCell viability was performed using trypan blue-based assay (n=3), data represented as mean±standard error mean (SEM).\nCell viability by trypan blue assay: Diffused large B cell lymphoma (DLBCL) cell lines like SUDHL-2 (ATCC® CRL-2956™) and SUDHL-5 (ATCC® CRL-2958™) cells were purchased from ATCC (Virginia, USA). The cells were regularly tested for Mycoplasma contamination using MycoAlert™ Mycoplasma detection kit (Lonza). All the cells used in the experiment were passaged less than 8 times. 10,000 U2932, SUDHL-5, or SUDHL-2 cells were plated in a 96 well plate. The cells were treated with different doses (500 nM, 1000 nM, 2000 nM and 4000 nM) of PNA-155, gamma tcPNA-155 or Scr-γtcPNA-155 for 48 hrs in an incubator (37° C. and 5% CO2). The dead cells were marked with trypan blue. Further counting was performed using an automated cell counter (Bio-rad)."}}}
{"substance": "γtcPNA-155: serine gamma tail-clamp anti-miR-155 PNA, RR-TJJJJ-OOO-ACCCCTATCACGATTAGCATTAA-RR, SEQ ID NO: 3 (all peptide nucleic acid (PNA); serine gamma PNA, tail-clamp TJJJJ via linkers, Arg-Arg at both ends)", "values": [{"measurement": "downregulation of Mcl-1 protein (western blot)", "setting": "Mcl-1 and Caspase-3", "result": 50, "unit": "%"}, {"measurement": "upregulation of Caspase-3 protein (western blot)", "setting": "Mcl-1 and Caspase-3", "result": 80, "unit": "%"}, {"measurement": "reduction in cell viability at 500 nM", "setting": "U2932 cells; U2932, 500 nM, compared to PNA-155 treated group", "result": "significant reduction in cell viability"}, {"measurement": "decrease in cell viability", "setting": "U2932 cells; U2932, 4UM, 48 hours", "result": "~80", "unit": "%"}]}
